The target of experiment [1] is RORγt (Homo sapiens (Human), UniProt P51449). As to the kind of experiment: Gal4 ligand binding assay (RORγt Gal fusion assay). The conditions noted are these: RORγt inverse agonists in RORγt Gal fusion assay. It counts as cell-based. The protocol: Human RORγ ligand binding assay was performed in 96-well format. The N-terminal DNA binding domains (DBD) of the native RORγ and RORγt receptors have been substituted with that of the yeast GAL4-DBD and RORγ is expressed constitutively in the cell line. Both agonist and inverse agonist activity can be detected. 10 mM compound stocks were diluted serially 1:3 with DMSO and further diluted with provided media to generate 10 titration points from 60 μM to 3 nM. These treatment conditions were added to the plates as 2× media in 100 μL volume. Each plate includes a positive control with 10 titration points as well as 6 negative control wells with vehicle only. Reporter cells were rapidly thawed and added to the plates in 100 μL volume. The plates were incubated for 24 hrs in a 37° C. humidified 5% CO2 incubator. Media was removed before the addition of room temperature Detection Substrate. After 5 minute incubation, the luminescence was quantified on a luminescence plate reader.

For experiment [2], the system named is IMQ-induced psoriasis. The conditions noted are these: topical pre-treatment daily for 5 days, 4 hours before IMQ; Compound A at 0.3, 1, 3%.
Procedure: Compounds of Formula (I), (Ia), or (Ib) were tested in the imiquimod (IMQ) induced psoriasis model in mice to determine their in vivo efficacy as topical agents. Female Balb/c mice of age 8-10 weeks were allowed to acclimatize for at least seven days prior to experiment initiation. During this period, the mice were observed daily for clinical signs. Animals were randomly assigned to studies group on Day zero (DO) before anaesthetization and back hair was completely removed by using a depilatory cream. One group of animals served as a naïve control (untreated). […] The severity of psoriasis was monitored and graded daily using a modified human scoring system, the Psoriasis Area and Severity Index (PASI), which consists of measures for ear and skin erythema, scaling and thickness. At the end of the study period, 24 hours after the final dosing, all animals were humanely sacrificed, and blind histopathological scoring was performed by pathologist on H&E stained tissue sections of the ear and back.

From patent US10905687B2, “Substituted piperazines as ROR-gamma modulators” (ESCALIER BIOSCIENCES B.V., priority 2016, dated 2021) come the findings set out here.

For orientation: IC50 means the concentration that inhibits the measured activity by half. Higher therefore signals weaker potency in that assay.

Structures can show the parent of a compound that is named as a salt.

Sequence of RORγt (P51449 269-508): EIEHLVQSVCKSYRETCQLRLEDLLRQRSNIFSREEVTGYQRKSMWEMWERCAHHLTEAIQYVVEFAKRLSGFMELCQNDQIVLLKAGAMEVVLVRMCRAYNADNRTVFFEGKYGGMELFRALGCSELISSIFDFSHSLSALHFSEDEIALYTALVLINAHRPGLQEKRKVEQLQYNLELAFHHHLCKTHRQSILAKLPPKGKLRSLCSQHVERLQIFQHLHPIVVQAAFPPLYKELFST

In experiment [1], `O=C(O)C1CN(Cc2ccncc2)CCN1Cc1ccc(-c2ccc(C(O)(C(F)(F)F)C(F)(F)F)cc2)cc1` (centres unmarked) [Compound 12, 1-((4′-(1,1,1,3,3,3-hexafluoro-2-hydroxypropan-2-yl)-[1,1′-biphenyl]-4-yl)methyl)-4-(pyridin-4-ylmethyl)piperazine-2-carboxylic acid] gave an IC50 of 1 to 10 µM.

`O=C(O)CC1CN(Cc2ccncc2)CCN1Cc1ccc(-c2ccc(C(O)(C(F)(F)F)C(F)(F)F)cc2)cc1` (centres unmarked) [Compound 13, 2-(1-((4′-(1,1,1,3,3,3-hexafluoro-2-hydroxypropan-2-yl)-[1,1′-biphenyl]-4-yl)methyl)-4-(pyridin-4-ylmethyl)piperazin-2-yl)acetic acid] registered an IC50 in experiment [1] of 1 to 10 µM.

In the case of `CC(C)NC(=O)C1CN(Cc2ccc(-c3ccc(C(O)(C(F)(F)F)C(F)(F)F)cc3)cc2)CCN1Cc1ccncc1` (centres unmarked) [Compound 28, 4-((4′-(1,1,1,3,3,3-hexafluoro-2-hydroxypropan-2-yl)-[1,1′-biphenyl]-4-yl)methyl)-N-isopropyl-1-(pyridin-4-ylmethyl)piperazine-2-car oxamide], the IC50 in experiment [1] lay in the range of 1 to 10 µM.

In experiment [1], `NCCOC(=O)CC1CN(Cc2ccc(-c3ccc(C(O)(C(F)(F)F)C(F)(F)F)cc3)cc2)CCN1Cc1ccncc1` (centres unmarked) [Compound 33, 2-aminoethyl 2-(4-((4′-(1,1,1,3,3,3-hexafluoro-2-hydroxypropan-2-yl)-[1,1′-biphenyl]-4-yl)methyl)-1-(pyridin-4-ylmethyl)piperazin-2-yl)acetate hydrochloride] had a half-inhibitory concentration (IC50) of 1 to 10 µM.

With `Cc1cc(CN2CCN(Cc3ccncc3)[C@@H](CC(=O)O)C2)ccc1-c1ccc(C(O)(C(F)(F)F)C(F)(F)F)cc1` [Compound 50, (S)-2-(4-((4′-(1,1,1,3,3,3-hexafluoro-2-hydroxypropan-2-yl)-2-methyl-[1,1′-biphenyl]-4-yl)methyl)-1-(pyridin-4-ylmethyl)piperazin-2-yl)acetic acid], in experiment [1], the IC50 was 1 to 10 µM.

Regarding `C[C@H]1C[C@H]2[C@@H]3CCC4=CC(=O)C=C[C@]4(C)[C@@]3(F)[C@@H](O)C[C@]2(C)[C@@]1(O)C(=O)CCl` [clobetasol], in experiment [2], the “ear and back skin thickness” value was “significantly decreased”; the histopathology scoring entry is given as “significantly decreased”; the psoriasis score entry is “significantly decreased”.
